pIC50: −log10 of the molar value. Structures can show the parent of a compound that is named as a salt. Bounds are passed on as bounds.

We go through two molecules from patent US9394263B2, “Substituted hetero-azepinones” (priority 2012, dated 2016).

For one assay, the target named is BIR2 domain of XIAP (Homo sapiens (Human), UniProt P98170, C202A/C213G). Kind of assay: TR-FRET assay for BIR2: inhibition of binding of XIAP BIR2 domain to Peptide A (SMAC-derived peptide).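 Also: percent inhibition measured across a concentration series of each compound, from which the IC50 was derived.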 As to conditions: read-out: BIR2 IC50. For orientation: Time-resolved FRET reads energy transfer from a long-lived donor to a nearby acceptor.
BIR2 domain of XIAP, sequence (P98170 other isoform, or with tags, fused parts or gaps, stated change not applied): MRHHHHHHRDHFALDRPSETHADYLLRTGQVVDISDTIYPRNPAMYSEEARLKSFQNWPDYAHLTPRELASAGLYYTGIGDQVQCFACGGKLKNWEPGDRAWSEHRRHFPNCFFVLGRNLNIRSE
A further assay has as its target BIR3 domain of XIAP (Homo sapiens (Human), UniProt P98170). Kind of assay: TR-FRET assay for BIR3: inhibition of binding of XIAP BIR3 domain to Peptide A (SMAC-derived peptide). As to conditions: read-out: BIR3 IC50.

BIR3 domain of XIAP, sequence (P98170 241-356 with tags or gaps limits assumed): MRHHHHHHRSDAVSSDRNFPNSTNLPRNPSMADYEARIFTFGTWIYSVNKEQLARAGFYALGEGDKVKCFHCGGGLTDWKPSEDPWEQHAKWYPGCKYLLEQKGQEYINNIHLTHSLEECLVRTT
Protocol for BIR2 domain of XIAP: TR-FRET Assay for BIR2 and BIR3
The peptides were labeled with the fluorescent tags FITC or TAMRA and Kd values were determined by fluorescence polarization assay.
The peptide sequence was derivatized with biotin to provide [sequence]-(8-biotin)-OH 1:2 TFA as the substrate for the TR-FRET assay.
The XIAP protein sequence was obtained from the SWISS-PROT protein sequence database and the BIR2 and BIR3 domains were derived from that.
Percentage of inhibition at each concentration was determined to generate an IC50 value for each test compound.

`CCN[C@@H](C)C(=O)N[C@@H]1C(=O)N(Cc2nn(-c3ccccc3C#N)c3ccccc23)c2ccccc2O[C@H]1C` [Example 74, (2S)-N-((2S,3S)-5-((1-(2-Cyanophenyl)-1H-indazol-3-yl)methyl)-2-methyl-4-oxo-2,3,4,5-tetrahydrobenzo[b][1,4]oxazepin-3-yl)-2-(ethylamino)propanamide trifluoroacetate]: the negative-log IC50 (pIC50) (commonly the negative decadic logarithm of the IC50, by convention in mol/L) at BIR2 domain of XIAP was 6.84; on BIR3 domain of XIAP, < 4.26.

In the case of `CCN[C@@H](C)C(=O)N[C@@H]1C(=O)N(Cc2c(C#N)n(-c3ccccc3C#N)c3ccccc23)c2ccccc2O[C@H]1C` [Example 77, (S)-N-((2S,3S)-5-((2-Cyano-1-(2-cyanophenyl)-1H-indol-3-yl)methyl)-2-methyl-4-oxo-2,3,4,5-tetrahydrobenzo[b][1,4]oxazepin-3-yl)-2-(ethylamino)propanamide], the pIC50 was 6.97 at BIR2 domain of XIAP and < 4.26 on BIR3 domain of XIAP.
